# Data taken from PubChem BioAssay (NCI).
#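 Tested at 5 concentrations; 48 h exposure; 96-well plates; endpoints linearly interpolated, else capped at highest concentration. TGI is the concentration that stops growth completely.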
# What was measured:
# Experiment in all cases: NCI tumour cell line growth inhibition, 48 h
# RPMI-8226 leukemia = test system: RPMI-8226 leukemia
# MOLT-4 leukemia = test system: MOLT-4 leukemia
# SF-539 CNS = test system: SF-539 CNS
# DMS 114 small cell lung = test system: DMS 114 small cell lung
# NCI-H522 lung = test system: NCI-H522 lung
# EKVX NSCLC = test system: EKVX NSCLC
# MALME-3M melanoma = test system: MALME-3M melanoma
# P388 leukemia = test system: P388 leukemia
# SW-620 colon = test system: SW-620 colon
# SK-MEL-28 melanoma = test system: SK-MEL-28 melanoma
# OVCAR-4 ovarian = test system: OVCAR-4 ovarian
# SK-MEL-2 melanoma = test system: SK-MEL-2 melanoma
# OVCAR-3 ovarian = test system: OVCAR-3 ovarian
# HCT-15 colon = test system: HCT-15 colon
# HOP-18 NSCLC = test system: HOP-18 NSCLC
# KM20L2 colon = test system: KM20L2 colon
# K-562 leukemia = test system: K-562 leukemia
# RXF 393 renal = test system: RXF 393 renal
# HOP-62 NSCLC = test system: HOP-62 NSCLC
# SN12C renal = test system: SN12C renal
# SNB-19 CNS = test system: SNB-19 CNS
# CCRF-CEM leukemia = test system: CCRF-CEM leukemia
# NCI-H23 lung = test system: NCI-H23 lung
# HCC-2998 colon = test system: HCC-2998 colon
# NCI/ADR-RES ovarian = test system: NCI/ADR-RES ovarian
# SNB-78 CNS = test system: SNB-78 CNS
# HOP-92 NSCLC = test system: HOP-92 NSCLC
# SNB-75 CNS = test system: SNB-75 CNS
# SF-268 CNS = test system: SF-268 CNS
# HT29 colon = test system: HT29 colon
# NCI-H226 lung = test system: NCI-H226 lung
# UO-31 renal = test system: UO-31 renal
# HCT-116 colon = test system: HCT-116 colon
# NCI-H460 lung = test system: NCI-H460 lung
# OVCAR-5 ovarian = test system: OVCAR-5 ovarian
# A549 NSCLC = test system: A549 NSCLC
# DMS 273 small cell lung = test system: DMS 273 small cell lung
# XF 498 CNS = test system: XF 498 CNS
# HL-60(TB) leukemia = test system: HL-60(TB) leukemia
# LOX IMVI melanoma = test system: LOX IMVI melanoma
# MCF7 breast = test system: MCF7 breast
# U251 CNS = test system: U251 CNS
# COLO 205 colon = test system: COLO 205 colon
# SN12K1 renal = test system: SN12K1 renal
# A498 renal = test system: A498 renal
# UACC-62 melanoma = test system: UACC-62 melanoma
# SF-295 CNS = test system: SF-295 CNS
# SK-OV-3 ovarian = test system: SK-OV-3 ovarian
# IGROV1 ovarian = test system: IGROV1 ovarian
# KM12 colon = test system: KM12 colon
# M19-MEL melanoma = test system: M19-MEL melanoma
# OVCAR-8 ovarian = test system: OVCAR-8 ovarian
# SK-MEL-5 melanoma = test system: SK-MEL-5 melanoma
# UACC-257 melanoma = test system: UACC-257 melanoma
# DLD-1 colon = test system: DLD-1 colon
# TK-10 renal = test system: TK-10 renal
# LXFL 529 NSCLC = test system: LXFL 529 NSCLC
# RXF-631 renal = test system: RXF-631 renal
# CAKI-1 renal = test system: CAKI-1 renal
# SR leukemia = test system: SR leukemia
# M14 melanoma = test system: M14 melanoma
# 786-0 renal = test system: 786-0 renal
# ACHN renal = test system: ACHN renal
smiles,measurement,setting,value
COc1cc([C@@H]2c3cc4c(c(O[C@@H]5O[C@H]6CO[C@@H](C)O[C@H]6[C@H](O)[C@@H]5O)c3C[C@H]3COC(=O)[C@@H]32)OCO4)cc(OC)c1O,TGI,RPMI-8226 leukemia,> 100 µM
same,TGI,MOLT-4 leukemia,> 100 µM
same,TGI,SF-539 CNS,7.79 µM
same,TGI,DMS 114 small cell lung,> 31.1 µM
same,TGI,NCI-H522 lung,6.42 µM
same,TGI,EKVX NSCLC,> 100 µM
same,TGI,MALME-3M melanoma,> 100 µM
same,TGI,P388 leukemia,4.82 µM
same,TGI,SW-620 colon,> 100 µM
same,TGI,SK-MEL-28 melanoma,> 100 µM
same,TGI,OVCAR-4 ovarian,> 53.3 µM
same,TGI,SK-MEL-2 melanoma,> 100 µM
same,TGI,OVCAR-3 ovarian,20.6 µM
same,TGI,HCT-15 colon,> 100 µM
same,TGI,HOP-18 NSCLC,> 100 µM
same,TGI,KM20L2 colon,> 100 µM
same,TGI,K-562 leukemia,> 100 µM
same,TGI,RXF 393 renal,> 100 µM
same,TGI,HOP-62 NSCLC,> 100 µM
same,TGI,SN12C renal,> 100 µM
same,TGI,SNB-19 CNS,> 100 µM
same,TGI,CCRF-CEM leukemia,> 100 µM
same,TGI,NCI-H23 lung,> 100 µM
same,TGI,HCC-2998 colon,> 81.1 µM
same,TGI,NCI/ADR-RES ovarian,37.1 µM
same,TGI,SNB-78 CNS,> 100 µM
same,TGI,HOP-92 NSCLC,> 100 µM
same,TGI,SNB-75 CNS,> 100 µM
same,TGI,SF-268 CNS,> 79.5 µM
same,TGI,HT29 colon,> 100 µM
same,TGI,NCI-H226 lung,20.8 µM
same,TGI,UO-31 renal,> 100 µM
same,TGI,HCT-116 colon,> 44.6 µM
same,TGI,NCI-H460 lung,> 100 µM
same,TGI,OVCAR-5 ovarian,> 100 µM
same,TGI,A549 NSCLC,> 100 µM
same,TGI,DMS 273 small cell lung,> 100 µM
same,TGI,XF 498 CNS,> 100 µM
same,TGI,HL-60(TB) leukemia,> 38.9 µM
same,TGI,LOX IMVI melanoma,> 100 µM
same,TGI,MCF7 breast,> 100 µM
same,TGI,U251 CNS,> 46.8 µM
same,TGI,COLO 205 colon,> 100 µM
same,TGI,SN12K1 renal,> 45.1 µM
same,TGI,A498 renal,> 100 µM
same,TGI,UACC-62 melanoma,> 100 µM
same,TGI,SF-295 CNS,22.5 µM
same,TGI,SK-OV-3 ovarian,> 92.9 µM
same,TGI,IGROV1 ovarian,> 100 µM
same,TGI,KM12 colon,> 79.6 µM
same,TGI,M19-MEL melanoma,> 100 µM
same,TGI,OVCAR-8 ovarian,> 100 µM
same,TGI,SK-MEL-5 melanoma,> 100 µM
same,TGI,UACC-257 melanoma,> 100 µM
same,TGI,DLD-1 colon,> 100 µM
COC(=O)C(CCCCCCCC(C(=O)OC)c1nc2n(c1O)C(=N)N=N2)c1nc2n(c1O)C(=N)N=N2 (stereo not drawn),TGI,TK-10 renal,> 100 µM
same,TGI,RPMI-8226 leukemia,> 100 µM
same,TGI,MOLT-4 leukemia,> 100 µM
same,TGI,LXFL 529 NSCLC,> 100 µM
same,TGI,SF-539 CNS,> 100 µM
same,TGI,DMS 114 small cell lung,> 100 µM
same,TGI,NCI-H522 lung,> 100 µM
same,TGI,EKVX NSCLC,> 100 µM
same,TGI,MALME-3M melanoma,> 100 µM
same,TGI,SW-620 colon,> 100 µM
same,TGI,SK-MEL-28 melanoma,> 100 µM
same,TGI,OVCAR-4 ovarian,> 100 µM
same,TGI,RXF-631 renal,> 100 µM
same,TGI,SK-MEL-2 melanoma,> 100 µM
same,TGI,OVCAR-3 ovarian,> 100 µM
same,TGI,HCT-15 colon,> 100 µM
same,TGI,HOP-18 NSCLC,> 100 µM
same,TGI,CAKI-1 renal,> 100 µM
same,TGI,KM20L2 colon,> 100 µM
same,TGI,RXF 393 renal,> 100 µM
same,TGI,HOP-62 NSCLC,> 100 µM
same,TGI,SN12C renal,> 100 µM
same,TGI,SNB-19 CNS,> 100 µM
same,TGI,CCRF-CEM leukemia,> 100 µM
same,TGI,NCI-H23 lung,> 100 µM
same,TGI,HCC-2998 colon,> 100 µM
same,TGI,SNB-78 CNS,> 100 µM
same,TGI,HOP-92 NSCLC,> 100 µM
same,TGI,SNB-75 CNS,> 85.6 µM
same,TGI,SF-268 CNS,> 100 µM
same,TGI,HT29 colon,> 100 µM
same,TGI,NCI-H226 lung,> 100 µM
same,TGI,UO-31 renal,> 100 µM
same,TGI,HCT-116 colon,> 100 µM
same,TGI,NCI-H460 lung,> 100 µM
same,TGI,SR leukemia,> 100 µM
same,TGI,OVCAR-5 ovarian,> 100 µM
same,TGI,A549 NSCLC,> 100 µM
same,TGI,DMS 273 small cell lung,> 100 µM
same,TGI,XF 498 CNS,> 100 µM
same,TGI,HL-60(TB) leukemia,> 100 µM
same,TGI,LOX IMVI melanoma,> 100 µM
same,TGI,U251 CNS,> 100 µM
same,TGI,COLO 205 colon,> 100 µM
same,TGI,M14 melanoma,> 100 µM
same,TGI,A498 renal,> 100 µM
same,TGI,UACC-62 melanoma,> 100 µM
same,TGI,786-0 renal,> 100 µM
same,TGI,SF-295 CNS,> 100 µM
same,TGI,SK-OV-3 ovarian,> 100 µM
same,TGI,IGROV1 ovarian,> 100 µM
same,TGI,KM12 colon,> 100 µM
same,TGI,M19-MEL melanoma,> 68.3 µM
same,TGI,OVCAR-8 ovarian,> 100 µM
same,TGI,SK-MEL-5 melanoma,> 100 µM
same,TGI,UACC-257 melanoma,> 100 µM
same,TGI,ACHN renal,> 100 µM
same,TGI,DLD-1 colon,> 100 µM
